In US8580534B2, “Method for incorporation of two oxygen atoms into digested peptides using peptidases” (The University of North Dakota, priority 2006, dated 2013):

Columns and labels:
[1] = system: peptide that has an arginine residue at the C-terminus (Arg-peptide); test: 18O atom incorporation into apomyoglobin Arg-peptides by LC/MS; format: biochemical, Horse; settings: for time to complete incorporation of two ^18O atoms: H2^18O
Experimental: (§1) We semi-quantitatively measured the rate of ^18O atom incorporation into Lys-C and tryptic peptides derived from apomyoglobin. This was done to test whether the increased rate of carboxyl oxygen exchange noted for the reaction of Ac-Lys-OH at acidic pH could be generalized to peptide substrates. Apomyoglobin (34 μg) was digested for 16 hours at 25° C. with either 1 μg of Lys-C or trypsin in 100 mM ammonium bicarbonate in H2^16O solvent. The digestion was stopped by adding formic acid to a final concentration of 1% and by boiling the reaction mixture for 2 minutes. The resulting Lys-C and tryptic peptides were lyophilized and used in the following experiments.
(§2) The rate of the carboxyl oxygen exchange reaction into the Lys-C and tryptic peptides by Lys-C and trypsin, respectively, were semi-quantitatively measured by looking at the rate of ^18O atom incorporation into the carboxyl termini of the peptides by LC/MS (described below). The Lys-C and tryptic digests (both 1.5 μg) were incubated with Lys-C and trypsin (both 0.03 μg), respectively, in H2^18O at 30° C. buffered (see above) at pH 5.0 or 9.0 for Lys-C and pH 6.0 or 8.0 for trypsin for various reaction times (1 minute-60 minutes). The total reaction volume was 50 μL. Aliquots (5 μL) of the reaction mixtures were taken after 1, 5, 10, and 60 minutes. The reactions were stopped by mixing with 40 μL of 10% formic acid and by heating at 95° C. for 2 minutes. After the heat treatment, the solvents were evaporated in the speed-vac concentrator and the samples were stored at −20° C. until use.
The stored ^18O labeled peptide mixtures were reconstituted in 20 μL of aqueous 0.1% trifluoroacetic acid (TFA), desalted by a C18 ZipTip as per the manufacturer's instructions (Millipore, Bedford, Mass.), and subjected to LC/MS analysis using an UltiMate nano HPLC system (Dionex, San Francisco, Calif.) interfaced to a QStar quadrupole/time of flight mass spectrometer (Applied Biosystems-MDS Sciex, Foster City, Calif.), as described previously. […]

[2] = steady-state kinetic parameters for the carboxyl oxygen exchange reaction; format: biochemical
Experimental: The steady-state kinetic parameters for the carboxyl oxygen exchange reaction by Lys-C and trypsin were obtained at two different pHs (pH 9.0 and 5.0 for Lys-C and pH 8.0 and 6.0 for trypsin). Ac-Lys-OH (0.0625-10 mM) was incubated with 1 uM Lys-C or trypsin at 30° C. in 95% H2^1 80 buffered at various pHs (described above). The total volume of the reaction was 20 μL. The duration of the reaction was 10 min for Lys-C and 20 min for trypsin. The single ^18O atom incorporated reaction product, Ac-Lys-180H, was quantified after addition of a [^13C2]Ac-Lys-OH internal standard (0.75 μg) by stable isotope dilution tandem mass spectrometry, as described below. All reactions were carried out in triplicate.
Km and Vmax values were calculated by fitting the Michaelis-Menten equation to the experimental data using SigmaPlot 9.01 (Systat Software, Richmond, Calif.). Kcat values were calculated by dividing the obtained Vmax values by the total enzyme amount added to the system.
An Agilent 1100 HPLC system (Palo Alto, Calif.) coupled to an API 3000 triple quadrupole mass spectrometer equipped with a TurbolonSpray™ ion source (Applied Biosystems-MDS-Sciex, Foster City, Calif.) was used to quantify Ac-Lys-^18OH. The reconstituted reaction mixtures were injected (typically 5 μL) onto a reversed-phase C18 column (2.1×150 mm, 5 μm, 300 Å, Vydac) equilibrated with 5% acetonitrile/0.1% HFBA (v/v) in water and then eluted with the same solvent at a flow rate of 200 μL/min. A switching valve (Valco Instrument, Houston, Tex.) was placed between the HPLC system and the mass spectrometer to divert non-volatile salt fractions from the mass spectrometer at the beginning of the run. The switching valve was switched in-line with the mass spectrometer at 3 minutes after the injection. The elution time of Ac-Lys-^18OH was 3.8 minutes.
The ion spray voltage and the ion source probe temperature were set at 5 kV and 400° C., respectively. Nitrogen was used both as a nebulizer and as an auxiliary gas, at flow rates of 3 and 8 L/min, respectively. A multiple reaction monitoring mode was used for monitoring Ac-Lys-^18OH and [^13C2]Ac-Lys-OH. The precursor and fragment ions monitored were m/z 191 (Ac-Lys-^18OH+H) and 149 (H-Lys-^18OH+H) for Ac-Lys-^18OH and m/z 191 ([^13C2]Ac-Lys-OH+H) and 147 (H-Lys-^16OH+H) for [^13C2]Ac-Lys-OH, respectively. […]
Amounts of Ac-Lys-^18OH in the reaction mixture were determined from the chromatographic peak area ratios of the analyte over the internal standard, assuming identical ionization efficiencies and identical yields of fragment ions for Ac-Lys-^18OH and [^13C2]Ac-Lys-OH. The experimentally determined amounts of Ac-Lys-^18OH were corrected upward 5%, accounting for 60 incorporation resulting from the H2^18O solvent having a 5% H2^16O content. […]

[3] = amidase activity (hydrolysis of Ac-Lys-NH2 in H2^18O); format: biochemical; settings: 10 mM Ac-Lys-NH2, 25° C., 95% H2^18O, within the pH range examined
Experimental: The amidase activity of Lys-C and trypsin was measured by monitoring the initial rate of hydrolysis of Ac-Lys-NH2 in H2^18O. Ac-Lys-NH2 (10 mM) was incubated with 0.2 uM Lys-C or 1 uM trypsin at 25° C. in 95% H2^18O at various pHs. The buffer solutions used were the same as described above for the carboxyl oxygen exchange reactions. The duration of the reaction was 5 min for Lys-C and 20 min for trypsin. The single ^18O atom incorporated reaction product, Ac-Lys-^18OH, was quantified after addition of a [^13C2]Ac-Lys-OH internal standard (0.75 μg) by stable isotope dilution tandem mass spectrometry, as described below. All reactions were carried out in triplicate.
(§3) An Agilent 1100 HPLC system (Palo Alto, Calif.) coupled to an API 3000 triple quadrupole mass spectrometer equipped with a TurbolonSpray™ ion source (Applied Biosystems-MDS-Sciex, Foster City, Calif.) was used to quantify Ac-Lys-^18OH. […]
The ion spray voltage and the ion source probe temperature were set at 5 kV and 400° C., respectively. […] The precursor and fragment ions monitored were m/z 191 (Ac-Lys-^18OH+H) and 149 (H-Lys-^18OH+H) for Ac-Lys-^18OH and m/z 191 ([^13C2]Ac-Lys-OH+H) and 147 (H-Lys-^16OH+H) for [^13C2]Ac-Lys-OH, respectively. […]

[4] = pH dependency of the carboxyl oxygen exchange reaction (18O incorporation into Ac-Lys-OH); format: biochemical; settings: 10 mM Ac-Lys-OH, 1 μM enzyme, 25° C., 95% H2^18O, pH 4.0-9.0 examined
Experimental: The initial rate of carboxyl oxygen exchange reaction catalyzed by Lys-C and trypsin was determined by monitoring the rate of ^18O atom incorporation into the carboxyl terminus of Ac-Lys-OH. For the pH studies, a 10 mM solution of Ac-Lys-OH in aqueous buffers at different pHs was incubated with 1 μM Lys-C or trypsin at 25° C. in 95% H2^18O buffered at various pHs. The buffer solutions used were 50 mM citrate at pH 4.0, 5.0 and 6.0 (pH adjusted by addition of NaOH), 50 mM phosphate at pH 7.0 and 8.0 (pH adjusted by addition of NaOH) and 50 mM Tris at pH 9.0 (pH adjusted by addition of HCl). The duration of the reaction was 5 minutes for Lys-C and 20 minutes for trypsin. […] The single ^18O atom incorporated reaction product, Ac-Lys-^18OH, in the reconstituted reaction solution was then quantified by stable isotope dilution tandem mass spectrometry, as described below. […]
as §3
Amounts of Ac-Lys-^18OH in the reaction mixture were determined from the chromatographic peak area ratios of the analyte over the internal standard, assuming identical ionization efficiencies and identical yields of fragment ions for Ac-Lys-^18OH and [^13C2]Ac-Lys-OH. […]

[5] = system: apomyoglobin peptide that has a lysine residue at the C-terminus (Lys-peptide); test: 18O atom incorporation into apomyoglobin Lys-peptides by LC/MS; format: biochemical, Horse
Experimental: as §1, §2
The stored ^18O labeled peptide mixtures were reconstituted in 20 μL of aqueous 0.1% trifluoroacetic acid (TFA), desalted by a C18 ZipTip as per the manufacturer's instructions (Millipore, Bedford, Mass.), and subjected to LC/MS analysis using an UltiMate nano HPLC system (Dionex, San Francisco, Calif.) interfaced to a QStar quadrupole/time of flight mass spectrometer (Applied Biosystems-MDS Sciex, Foster City, Calif.), as described previously. Briefly, the peptide mixture (5 μl) was injected directly into a reverse-phase analytical column (0.075×60 mm, New Objective Inc., Woburn, Mass.) packed with Jupiter C18 media (Phenomenex, Torrance, Calif.), washed with 2% acetonitrile/0.1% formic acid (v/v) in water for 15 minutes at flow rate of 2 μL/min. The peptides were then eluted with a 40 minute linear gradient of 2% acetonitrile/0.1% formic acid (v/v) in water to 40% acetonitrile/0.1% formic acid (v/v) in water at a flow rate of 200 nL/min. The column effluent was directed on-line to a nano-electrospray ion source. The total ion current was obtained in the mass range of m/z 400-1600 in the positive ion mode. The electrospray and orifice voltages were 2050V and 65V, respectively.

trypsin
dominant peak after 1 minute of incubation ([1]; both pH 6.0 and 8.0): two ^18O atoms | time to complete incorporation of two ^18O atoms ([1]; pH 6.0, 30° C.): ≤ 10 min | time to complete incorporation of two ^18O atoms ([1]; pH 8.0, 30° C.): 60 min | kcat/Km of carboxyl oxygen exchange, fold lower than reported kcat/Km for amide hydrolysis ([2]; pH 6.0 versus N-benzoyl-L-lysine amide hydrolysis at pH 8.0): 5.1 fold | Km, fold smaller at acidic than at alkaline pH ([2]; pH 6.0 versus pH 8.0): about 3 fold | kcat, fold higher at acidic than at alkaline pH ([2]; pH 6.0 versus pH 8.0): about 5 fold | rate of the carboxyl oxygen exchange ([2]; pH 9.0): too low | most favorable pH for the amidase activity [3]: 9 pH | optimum pH of the carboxyl oxygen exchange reaction [4]: 6.0 pH | time to complete incorporation of two ^18O atoms ([5]; pH 6.0, 30° C., H2^18O): ≤ 10 min | dominant result after 1 minute of incubation ([5]; pH 6.0 and 8.0): incorporation of only one ^18O atom | dominant result of ^18O incorporation ([5]; pH 8.0, 30° C., H2^18O): incorporation of only one ^18O atom | time to complete incorporation of two ^18O atoms ([5]; pH 8.0, 30° C., H2^18O): > 60 min
